Experimental data taken from patent US20230085686A1, “Multicompartement hydrogel fibre their preparation and uses thereof” (Association For The Advancement Of Tissue Engineering And …, priority 2020, published 2023).

Tested on: Melanoma cells of the Sk-MEL-28 cell line
Assay: Drug test with doxorubicin in modular cancer/BM/stroma ribbon fibres, Calcein AM / Propidium Iodide viability
Format: cell-based, human
Conditions: 1 μM Doxorubicin, 24 h treatment
Description: Melanoma cells of the Sk-MEL-28 (ATCC) cell line were encapsulated in the GG/GelMA compartment and human dermal fibroblasts (hDFs) were encapsulated in the GG compartment, both representing the cancer and stroma, respectively, separated by the basement-membrane-mimicking GelTrex/HA. […] In order to track the different cell types, these were stained with CellBrite Green and Orange (Biotium) according to the manufacturer's instructions. […] With this model, melanoma cells were included in the cancer compartment, and dermal fibroblasts within the stromal compartment, both separated by a GelTrex BM in a unique melanoma-on-a-fibre structure. Fibres with tracked cells were observed under an Inverted Confocal Laser Scanning Microscope (Leica), throughout one week of culture.
For the drug tests, fibroblasts were stained blue prior to encapsulation using CellTracker blue CMAC Dye (7-amino 4-chloromethylcoumarin, Molecular Probes) according to manufacturer's instructions. These were then integrated in the fibres together with the cancer cells, and all modular fibres were produced. 24 h after fabrication, fibres were incubated with either culture medium (no treatment) or culture medium containing 1 μM of Doxorubicin (Carbosynth). One day after treatment, samples were incubated with medium containing 1:1000 dilution of Calcein AM (Thermofisher) and 1 μg/mL Propidium Iodide (Molecular Probes) for 30 mins at 37° C., 5% CO2, for viability assessment. Images of the fibres were acquired in the Axio Observer inverted Microscope (Zeiss), and a cell profiler pipeline was used to derive the numbers of live and dead cells using the blue staining to distinguish fibroblasts from melanoma cells. Similarly, 2D controls were obtained by simply seeding the cells individually or in co-culture in 24 well-plates at a density of 20×10^3 cells per well (10×10^3 cells of each type in the case of co-cultures). 2D controls were then processed in the same way as the fibres. […]

SMILES: COc1cccc2c1C(=O)c1c(O)c3c(c(O)c1C2=O)C[C@@](O)(C(=O)CO)C[C@@H]3O[C@H]1C[C@H](N)[C@H](O)[C@H](C)O1 [Doxorubicin]
- cancer cell viability vs. the control (cancer-only fibres): significant drop in viability
- cancer cell viability vs. the control (cancer/stroma fibres (no BM)): no longer significant
- numbers of live cancer cells upon treatment (full cancer/BM/stroma fibres): numbers of live cancer cells can improve
